The text below walks through data of ChEMBL document CHEMBL1135151, “Preparation, characterization, molecular modeling and in vitro activity of paclitaxel-cyclodextrin complexes” (2002).

Type in all cases: functional, Homo sapiens
The subject of test [1] is DU-145. Put plainly: Tested for in vitro activity against DU 145 cells at PTX dilution factor 1:500, expressed as percentage of cellular survival as a function of drug dilution.
For test [2], the system named is DU-145. Briefly: Tested for in vitro activity against DU 145 cells at PTX dilution factor 1:50, expressed as percentage of cellular survival as a function of drug dilution.
Test [3] deals with DU-145. Briefly: Tested for in vitro activity against DU 145 cells at PTX dilution factor 1:1000, expressed as percentage of cellular survival as a function of drug dilution.
In test [4] the test system is DU-145. Briefly: Tested for in vitro activity against DU 145 cells at PTX dilution factor 1:100, expressed as percentage of cellular survival as a function of drug dilution.

`COCC1O[C@H]2OC3C(COC)O[C@@H](OC4C(COC)O[C@@H](OC5C(COC)O[C@@H](OC6C(COC)O[C@@H](OC7C(COC)O[C@@H](OC8C(COC)O[C@@H](OC1[C@@H](O)[C@@H]2OC)[C@@H](OC)[C@H]8O)[C@@H](OC)[C@H]7O)[C@@H](O)[C@H]6OC)[C@@H](OC)[C@H]5O)[C@@H](OC)[C@H]4O)[C@@H](OC)[C@H]3O` (stereo partly drawn): the Survival came to 90.2% in the test with DU-145 [1], 88.9% in the test on DU-145 [2], 91.5% with DU-145 [3] and 90.6% in the test with DU-145 [4].

In the case of `CC(=O)O[C@H]1C(=O)[C@@]2(C)C([C@H](OC(=O)c3ccccc3)[C@]3(O)C[C@H](OC(=O)[C@H](O)[C@@H](NC(=O)c4ccccc4)c4ccccc4)C(C)=C1C3(C)C)[C@]1(OC(C)=O)CO[C@@H]1C[C@@H]2O.COCC1O[C@H]2OC3C(COC)O[C@@H](OC4C(COC)O[C@@H](OC5C(COC)O[C@@H](OC6C(COC)O[C@@H](OC7C(COC)O[C@@H](OC8C(COC)O[C@@H](OC1[C@@H](OC)[C@@H]2OC)[C@@H](OC)[C@H]8OC)[C@@H](OC)[C@H]7OC)[C@@H](OC)[C@H]6OC)[C@@H](OC)[C@H]5OC)[C@@H](OC)[C@H]4OC)[C@@H](OC)[C@H]3OC` (stereo partly drawn), the Survival came out at 68.7% in the test on DU-145 [1], 43.2% in the test with DU-145 [2], 69.3% in the test with DU-145 [3] and 61.3% in the test with DU-145 [4].

With `COCC1O[C@H]2OC3C(COC)O[C@@H](OC4C(COC)O[C@@H](OC5C(COC)O[C@@H](OC6C(COC)O[C@@H](OC7C(COC)O[C@@H](OC8C(COC)O[C@@H](OC1[C@@H](OC)[C@@H]2OC)[C@@H](OC)[C@H]8OC)[C@@H](OC)[C@H]7OC)[C@@H](OC)[C@H]6OC)[C@@H](OC)[C@H]5OC)[C@@H](OC)[C@H]4OC)[C@@H](OC)[C@H]3OC` (stereo partly drawn), the Survival in the test with DU-145 [1] was 87%; in the test with DU-145 [2], 79.7%; with DU-145 [3], 90.1%; with DU-145 [4], 85.5%.

With `CC(=O)O[C@H]1C(=O)[C@@]2(C)C([C@H](OC(=O)c3ccccc3)[C@]3(O)C[C@H](OC(=O)[C@H](O)[C@@H](NC(=O)c4ccccc4)c4ccccc4)C(C)=C1C3(C)C)[C@]1(OC(C)=O)CO[C@@H]1C[C@@H]2O.COCC1O[C@H]2OC3C(COC)O[C@@H](OC4C(COC)O[C@@H](OC5C(COC)O[C@@H](OC6C(COC)O[C@@H](OC7C(COC)O[C@@H](OC8C(COC)O[C@@H](OC1[C@@H](O)[C@@H]2OC)[C@@H](OC)[C@H]8O)[C@@H](OC)[C@H]7O)[C@@H](O)[C@H]6OC)[C@@H](OC)[C@H]5O)[C@@H](OC)[C@H]4O)[C@@H](OC)[C@H]3O` (stereo partly drawn), the Survival is 51.1% in the test on DU-145 [1], 35.2% in the test on DU-145 [2], 61.3% with DU-145 [3] and 46.3% in the test on DU-145 [4].

Consider `CC(=O)O[C@H]1C(=O)[C@@]2(C)C([C@H](OC(=O)c3ccccc3)[C@]3(O)C[C@H](OC(=O)[C@H](O)[C@@H](NC(=O)c4ccccc4)c4ccccc4)C(C)=C1C3(C)C)[C@]1(OC(C)=O)CO[C@@H]1C[C@@H]2O.OCC1O[C@H]2OC3C(CO)O[C@@H](OC4C(CO)O[C@@H](OC5C(CO)O[C@@H](OC6C(CO)O[C@@H](OC7C(CO)O[C@@H](OC8C(CO)O[C@@H](OC1[C@@H](O)[C@@H]2O)[C@@H](O)[C@H]8O)[C@@H](O)[C@H]7O)[C@@H](O)[C@H]6O)[C@@H](O)[C@H]5O)[C@@H](O)[C@H]4O)[C@@H](O)[C@H]3O` (stereo partly drawn), for which the Survival came to 23.1% in the test with DU-145 [1], 12.2% in the test on DU-145 [2], 24.2% in the test on DU-145 [3] and 22.3% in the test with DU-145 [4].

Consider `OC[C@H]1O[C@@H]2O[C@H]3[C@H](O)[C@@H](O)[C@@H](O[C@H]4[C@H](O)[C@@H](O)[C@@H](O[C@H]5[C@H](O)[C@@H](O)[C@@H](O[C@H]6[C@H](O)[C@@H](O)[C@@H](O[C@H]7[C@H](O)[C@@H](O)[C@@H](O[C@H]8[C@H](O)[C@@H](O)[C@@H](O[C@H]1[C@H](O)[C@H]2O)O[C@@H]8CO)O[C@@H]7CO)O[C@@H]6CO)O[C@@H]5CO)O[C@@H]4CO)O[C@@H]3CO` [BETADEX], for which the Survival is 96.4% in the test with DU-145 [1], 96.4% in the test with DU-145 [2], 96.8% in the test on DU-145 [3] and 96.6% in the test with DU-145 [4].

Regarding `CC(=O)O[C@H]1C(=O)[C@@]2(C)[C@H]([C@H](OC(=O)c3ccccc3)[C@]3(O)C[C@H](OC(=O)[C@H](O)[C@@H](NC(=O)c4ccccc4)c4ccccc4)C(C)=C1C3(C)C)[C@]1(OC(C)=O)CO[C@@H]1C[C@@H]2O` [PACLITAXEL], the Survival amounted to 43.3% in the test with DU-145 [1], 11.6% in the test on DU-145 [2], 46% with DU-145 [3] and 12.1% with DU-145 [4].
